Where “and” joins values, the source holds several entries; their conditions need not be identical. Equal entries are not always repeated. Inconclusive results and toxic doses are left out. How the source made its calls: active means survival T/C of 150% or more; inactive means T/C below 125% in these data.
Test system: P388 leukemia ip, CD2F1 mice, survival T/C
Assay: NCI In Vivo Anticancer Drug Screen. Data for tumor model P388 Leukemia (intraperitoneal) in CD2F1 (CDF1) mice
Conditions: endpoint: median survival time, higher = longer survival
In short: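 Mice carrying the transplanted tumor received test compound or vehicle. Survival was recorded in each group, and the value is the treated-group measurement divided by that of the vehicle-treated control group.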

[1] = dose: 6.25 mg/kg/injection, schedule: Q01DX005 (ip), vehicle: Klucel (hydroxypropylcellulose) (HPC)
[2] = dose: 12.5 mg/kg/injection, schedule: Q01DX005 (ip), vehicle: Klucel (hydroxypropylcellulose) (HPC)
[3] = dose: 25.0 mg/kg/injection, schedule: Q01DX005 (ip), vehicle: Klucel (hydroxypropylcellulose) (HPC)
[4] = dose: 25.0 mg/kg/injection, schedule: Q01DX001 (ip), vehicle: saline
[5] = dose: 50.0 mg/kg/injection, schedule: Q01DX001 (ip), vehicle: saline
[6] = dose: 50.0 mg/kg/injection, schedule: Q01DX009 (ip), vehicle: saline with Tween-80
[7] = dose: 100.0 mg/kg/injection, schedule: Q01DX009 (ip), vehicle: saline with Tween-80
[8] = dose: 200.0 mg/kg/injection, schedule: Q01DX009 (ip), vehicle: saline with Tween-80
[9] = dose: 25.0 mg/kg/injection, schedule: Q01DX009 (ip), vehicle: saline with Tween-80
[10] = dose: 100.0 mg/kg/injection, schedule: Q01DX001 (ip), vehicle: saline with Tween-80
[11] = dose: 200.0 mg/kg/injection, schedule: Q01DX001 (ip), vehicle: saline with Tween-80
[12] = dose: 400.0 mg/kg/injection, schedule: Q01DX001 (ip), vehicle: saline with Tween-80
[13] = dose: 50.0 mg/kg/injection, schedule: Q01DX009 (ip), vehicle: saline
[14] = dose: 100.0 mg/kg/injection, schedule: Q01DX009 (ip), vehicle: saline
[15] = dose: 50.0 mg/kg/injection, schedule: Q01DX005 (ip), vehicle: saline
[16] = dose: 100.0 mg/kg/injection, schedule: Q01DX005 (ip), vehicle: saline
[17] = dose: 200.0 mg/kg/injection, schedule: Q01DX005 (ip), vehicle: saline
[18] = dose: 200.0 mg/kg/injection, schedule: Q01DX009 (ip), vehicle: saline
[19] = dose: 6.25 mg/kg/injection, schedule: Q01DX009 (ip), vehicle: saline with Tween-80
[20] = dose: 50.0 mg/kg/injection, schedule: Q01DX005 (ip), vehicle: Klucel (hydroxypropylcellulose) (HPC)

Measured: T/C

CN(C)CCSSCCN(C)C.[Cl][Zn][Cl]
inactive: [1] 102 % of control | [2] 95 % of control | [3] 97 % of control

COc1ccc(/C=C2/OC(=O)C(C(C)=O)=C2O)cc1
inactive: dose: 50.0 mg/kg/injection, schedule: Q01DX009 (ip), vehicle: Klucel (hydroxypropylcellulose) (HPC) 115 % of control | dose: 100.0 mg/kg/injection, schedule: Q01DX009 (ip), vehicle: Klucel (hydroxypropylcellulose) (HPC) 100 % of control

C#CCC(B1OCCO1)B1OCCO1
inactive: [4] 100 % of control | [5] 90 % of control

c1cc[n+](CC[n+]2ccccn2)nc1
inactive: dose: 12.5 mg/kg/injection, schedule: Q01DX001 (ip), vehicle: saline 108 % of control and 111 % of control and 95 % of control | [4] 100 % of control (2×) and 122 % of control | [5] 100 % of control and 101 % of control and 92 % of control

Cc1cc2c(cc1C)-c1c(oc3cc(C)c(C)cc13)-c1ccccc1C(=O)O2
inactive: [6] 94 % of control | [7] 97 % of control | [8] 97 % of control

COc1cc(-c2cc(O)c(-c3ccc4ccccc4n3)c(=O)[nH]2)cc(OC)c1OC
inactive: dose: 0.93 mg/kg/injection, schedule: Q01DX005 (ip), vehicle: saline with Tween-80 102 % of control | dose: 1.88 mg/kg/injection, schedule: Q01DX005 (ip), vehicle: saline with Tween-80 98 % of control | dose: 3.75 mg/kg/injection, schedule: Q01DX005 (ip), vehicle: saline with Tween-80 96 % of control | dose: 120.0 mg/kg/injection, schedule: Q01DX005 (ip), vehicle: saline with Tween-80 87 % of control | dose: 240.0 mg/kg/injection, schedule: Q01DX005 (ip), vehicle: saline with Tween-80 90 % of control

O=C(O)CC(OC(=O)CP(=O)(O)O)C(=O)O (stereo unspecified)
inactive: dose: 100.0 mg/kg/injection, schedule: Q04DX002 (ip), vehicle: saline 105 % of control | dose: 200.0 mg/kg/injection, schedule: Q04DX002 (ip), vehicle: saline 93 % of control | dose: 400.0 mg/kg/injection, schedule: Q04DX002 (ip), vehicle: saline 102 % of control

Cc1ccc(-c2cssc2=S)cc1
inactive: [9] 96 % of control | [6] 95 % of control | [7] 92 % of control | [8] 90 % of control

CCCCCCCCCCCCOC1C=C(C)C(=O)O1 (stereo unspecified)
inactive: dose: 100.0 mg/kg/injection, schedule: Q04DX002 (ip), vehicle: saline with Tween-80 100 % of control | dose: 200.0 mg/kg/injection, schedule: Q04DX002 (ip), vehicle: saline with Tween-80 101 % of control | dose: 400.0 mg/kg/injection, schedule: Q04DX002 (ip), vehicle: saline with Tween-80 100 % of control

O=C(CN(OC(=O)c1ccccc1)C(=O)c1ccccc1)OCc1ccccc1
inactive: dose: 12.5 mg/kg/injection, schedule: Q01DX009 (ip), vehicle: distilled water + Tween-80 92 % of control | dose: 25.0 mg/kg/injection, schedule: Q01DX009 (ip), vehicle: distilled water + Tween-80 99 % of control | dose: 50.0 mg/kg/injection, schedule: Q01DX009 (ip), vehicle: distilled water + Tween-80 99 % of control | dose: 100.0 mg/kg/injection, schedule: Q01DX009 (ip), vehicle: distilled water + Tween-80 100 % of control | dose: 200.0 mg/kg/injection, schedule: Q01DX009 (ip), vehicle: distilled water + Tween-80 101 % of control

COC1CC(O)C2OC(c3ccccc3)OCC2O1 (stereo unspecified)
inactive: [10] 101 % of control | [11] 105 % of control | [12] 99 % of control

CC(=O)N(Cc1cnc2nc(N)[nH]c(=O)c2n1)c1ccc(C(=O)NC(CCC(=O)O)C(=O)O)cc1 (stereo unspecified)
inactive: dose: 25.0 mg/kg/injection, schedule: Q01DX009 (ip), vehicle: saline 90 % of control | [13] 100 % of control | [14] 101 % of control and 104 % of control

Cc1cnn(-c2ccccc2)[n+]1[O-]
inactive: [15] 99 % of control | [16] 96 % of control | [17] 102 % of control

CCOP(=O)(Nc1cc(C)ccc1C)OCC
inactive: [13] 100 % of control | [10] 105 % of control | [14] 104 % of control | [11] 112 % of control | [18] 106 % of control | [12] 109 % of control

O=C(N=Nc1c(Cl)c(O)c2ccccc2c1O)C(F)(F)F
inactive: dose: 1.56 mg/kg/injection, schedule: Q01DX009 (ip), vehicle: saline with Tween-80 101 % of control | dose: 3.13 mg/kg/injection, schedule: Q01DX009 (ip), vehicle: saline with Tween-80 110 % of control | [19] 115 % of control

COc1cc(NCCCC2CCCCN2)c2ncccc2c1OC (stereo unspecified)
inactive: dose: 6.25 mg/kg/injection, schedule: Q01DX005 (ip), vehicle: saline 103 % of control | dose: 12.5 mg/kg/injection, schedule: Q01DX005 (ip), vehicle: saline 101 % of control

[NH-]CC(=O)O.[NH-]CC(=O)O.[Ni+2]
inactive: dose: 6.25 mg/kg/injection, schedule: Q01DX005 (ip), vehicle: saline with Tween-80 100 % of control | dose: 12.5 mg/kg/injection, schedule: Q01DX005 (ip), vehicle: saline with Tween-80 100 % of control

COC(=O)N1C2CCCCC2=NN(c2ccccc2)N1C(=O)OC (stereo unspecified)
inactive: [3] 100 % of control | [20] 98 % of control | dose: 100.0 mg/kg/injection, schedule: Q01DX005 (ip), vehicle: Klucel (hydroxypropylcellulose) (HPC) 93 % of control | dose: 200.0 mg/kg/injection, schedule: Q01DX005 (ip), vehicle: Klucel (hydroxypropylcellulose) (HPC) 91 % of control

CC(=O)OCC1C(=O)OCC1C(=O)N1Cc2cc3ccccc3nc2C1 (stereo unspecified)
inactive: [19] 100 % of control | dose: 8.0 mg/kg/injection, schedule: Q01DX009 (ip), vehicle: saline with Tween-80 104 % of control and 93 % of control and 97 % of control | dose: 12.5 mg/kg/injection, schedule: Q01DX009 (ip), vehicle: saline with Tween-80 113 % of control | dose: 16.0 mg/kg/injection, schedule: Q01DX009 (ip), vehicle: saline with Tween-80 105 % of control and 116 % of control and 98 % of control | [9] 105 % of control | dose: 32.0 mg/kg/injection, schedule: Q01DX009 (ip), vehicle: saline with Tween-80 113 % of control and 116 % of control and 97 % of control | [6] 105 % of control | dose: 64.0 mg/kg/injection, schedule: Q01DX009 (ip), vehicle: saline with Tween-80 99 % of control and 105 % of control | dose: 128.0 mg/kg/injection, schedule: Q01DX009 (ip), vehicle: saline with Tween-80 100 % of control and 106 % of control and 108 % of control

CCCCOC(=O)C(C)OC(=O)Nc1cccc(C)c1 (stereo unspecified)
inactive: dose: 100.0 mg/kg/injection, schedule: Q04DX002 (ip), vehicle: Klucel (hydroxypropylcellulose) (HPC) 105 % of control | dose: 200.0 mg/kg/injection, schedule: Q04DX002 (ip), vehicle: Klucel (hydroxypropylcellulose) (HPC) 103 % of control | dose: 400.0 mg/kg/injection, schedule: Q04DX002 (ip), vehicle: Klucel (hydroxypropylcellulose) (HPC) 100 % of control

C=CCNc1nnc(-c2ccccc2)s1
inactive: [6] 103 % of control | [7] 100 % of control | [8] 100 % of control

CC[n+]1cccc(O)c1
inactive: [13] 105 % of control and 94 % of control | [14] 95 % of control and 96 % of control | [18] 107 % of control and 95 % of control | dose: 400.0 mg/kg/injection, schedule: Q01DX009 (ip), vehicle: saline 100 % of control and 105 % of control

O=S(=O)(c1cccc(N=C=S)c1)c1cccc(N=C=S)c1
inactive: [1] 123 % of control | [2] 117 % of control and 123 % of control | [3] 123 % of control | [20] 103 % of control

CC(=O)c1ccc[n+](Cc2ccc([N+](=O)[O-])cc2)c1
inactive: [9] 95 % of control | [6] 100 % of control | [7] 90 % of control

O=c1[nH]cc(CN(CCO)CCO)c(=O)[nH]1
inactive: [15] 106 % of control | [16] 105 % of control | [17] 99 % of control

COc1ccc(CN2CC(C)(NC(=O)OCc3ccccc3)C2=O)c(OC)c1 (stereo unspecified)
inactive: dose: 50.0 mg/kg/injection, schedule: Q01DX005 (ip), vehicle: saline with Tween-80 106 % of control | dose: 100.0 mg/kg/injection, schedule: Q01DX005 (ip), vehicle: saline with Tween-80 98 % of control | dose: 200.0 mg/kg/injection, schedule: Q01DX005 (ip), vehicle: saline with Tween-80 103 % of control
